Test results taken from patent publication US20230373985A1 (Origenis Gmbh, priority 2020, published 2023).

Legend:
[1] = target: T1, wt human TYK2, catalytic site (Homo sapiens, UniProt P29597); assay: HTRF KinEASE assay, TYK2; assay type: biochemical; details: 1 μM ATP; read-out: IC50, Activity Toward TYK2
T1 construct: wt human TYK2, catalytic site; purchased SignalChem
T1 sequence (P29597 897-1176 limits assumed): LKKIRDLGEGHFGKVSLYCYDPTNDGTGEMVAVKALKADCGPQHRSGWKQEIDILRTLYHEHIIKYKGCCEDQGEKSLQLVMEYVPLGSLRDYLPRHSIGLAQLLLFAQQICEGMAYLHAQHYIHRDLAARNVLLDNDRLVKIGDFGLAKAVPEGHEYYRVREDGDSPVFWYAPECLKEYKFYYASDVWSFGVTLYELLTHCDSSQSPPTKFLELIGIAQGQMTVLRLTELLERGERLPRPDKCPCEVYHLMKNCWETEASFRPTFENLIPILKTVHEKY
Method in brief: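 Kinase reaction run at room temperature for at least 30 min: 2 nM TYK2 with 1 μM ATP, or 1 nM JAK2 with 100 μM ATP, each with 1 μM biotin-TK substrate. Phosphorylation detected by HTRF (60 min antibody/XL665) and evaluated from emission ratios.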

[2] = target: T2, wt human JAK1, catalytic site (Homo sapiens, UniProt P23458); assay: HTRF KinEASE assay, JAK1; assay type: biochemical; details: 2.5 μM ATP; read-out: IC50, Activity Toward JAK1
T2 construct: wt human JAK1, catalytic site; purchased ThermoFisher
T2 sequence (P23458 875-1153 limits assumed): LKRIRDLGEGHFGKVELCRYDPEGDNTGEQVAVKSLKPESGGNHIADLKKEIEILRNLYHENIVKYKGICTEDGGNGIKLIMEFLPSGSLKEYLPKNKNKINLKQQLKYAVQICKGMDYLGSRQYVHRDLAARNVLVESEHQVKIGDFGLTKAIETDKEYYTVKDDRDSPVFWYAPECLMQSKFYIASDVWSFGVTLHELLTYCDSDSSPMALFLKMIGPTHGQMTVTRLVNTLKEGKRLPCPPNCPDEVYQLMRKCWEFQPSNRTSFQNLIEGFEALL
Method in brief: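 Compounds in DMSO dilution were mixed with kinase, biotin-TK substrate and ATP and reacted for ≥30 min at room temperature. Detection reagents (antibody, streptavidin-XL665) were read 60 min later as HTRF, with emission ratios analysed per KinEASE protocol.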

[3] = target: T3, wt human JAK2, catalytic site (Homo sapiens, UniProt O60674); assay: HTRF KinEASE assay, JAK2; assay type: biochemical; details: assay format not given (Z'-LYTE or HTRF KinEASE); read-out: IC50, Activity Toward JAK2
T3 construct: wt human JAK2, catalytic site; purchased SignalChem
T3 sequence (O60674 849-1124 limits assumed): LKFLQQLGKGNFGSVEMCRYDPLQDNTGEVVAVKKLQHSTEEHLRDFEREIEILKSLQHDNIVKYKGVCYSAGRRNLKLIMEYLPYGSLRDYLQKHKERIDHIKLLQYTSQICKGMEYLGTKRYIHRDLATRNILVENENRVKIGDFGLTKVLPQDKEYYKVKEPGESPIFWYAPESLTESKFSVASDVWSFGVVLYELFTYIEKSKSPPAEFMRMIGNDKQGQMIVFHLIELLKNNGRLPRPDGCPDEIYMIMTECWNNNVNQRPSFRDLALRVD
Experimental: Basic protocol for HTRF KinEASE assay (Cisbio/FRA) inhibitor studies involved two steps: • Enzymatic step: Addition of 4 μL of test compound in corresponding DMSO dilutions, 4 μL of kinase/substrate mixture, 2 μL of ATP into 384 well small volume plates. Incubation for at least 30 minutes at room temperature. • Detection step: Addition of 5 μL antibody and 5 μL streptavidin-XL665, read plate after 60 minutes. Data analysis of emission ratios according KinEASE assay protocol.
(§1) Kinase and assay components were adjusted to final concentrations according to kit protocol. For TYK2: 2 nM wt human TYK2, catalytic site (SignalChem/CAN), 1 μM HTRF KinEASE-TK Substrate-biotin, 1 μM ATP in 1× Kinase Buffer. For JAK1: 4 nM wt human JAK1, catalytic site (ThermoFisher/USA), 1 μM HTRF KinEASE-TK Substrate-biotin, 2.5 μM ATP in 1× Kinase Buffer. For JAK2: 1 nM wt human JAK2, catalytic site (SignalChem/CAN), 1 μM HTRF KinEASE-TK Substrate-biotin, 100 μM ATP in 1× Kinase Buffer.
as §1

[4] = target: T4, wt human LRRK2, catalytic site (Homo sapiens, UniProt Q5S007); assay: TR-FRET LanthaScreen Eu Kinase Binding Assay, LRRK2 wt; details: one range stated for wt and G2019, read-out: IC50, Activity Toward LRRK2(Wt)
T4 construct: 5 nM wt human LRRK2, catalytic site; purchased ThermoFisher
T4 sequence (Q5S007 970-2527 limits assumed): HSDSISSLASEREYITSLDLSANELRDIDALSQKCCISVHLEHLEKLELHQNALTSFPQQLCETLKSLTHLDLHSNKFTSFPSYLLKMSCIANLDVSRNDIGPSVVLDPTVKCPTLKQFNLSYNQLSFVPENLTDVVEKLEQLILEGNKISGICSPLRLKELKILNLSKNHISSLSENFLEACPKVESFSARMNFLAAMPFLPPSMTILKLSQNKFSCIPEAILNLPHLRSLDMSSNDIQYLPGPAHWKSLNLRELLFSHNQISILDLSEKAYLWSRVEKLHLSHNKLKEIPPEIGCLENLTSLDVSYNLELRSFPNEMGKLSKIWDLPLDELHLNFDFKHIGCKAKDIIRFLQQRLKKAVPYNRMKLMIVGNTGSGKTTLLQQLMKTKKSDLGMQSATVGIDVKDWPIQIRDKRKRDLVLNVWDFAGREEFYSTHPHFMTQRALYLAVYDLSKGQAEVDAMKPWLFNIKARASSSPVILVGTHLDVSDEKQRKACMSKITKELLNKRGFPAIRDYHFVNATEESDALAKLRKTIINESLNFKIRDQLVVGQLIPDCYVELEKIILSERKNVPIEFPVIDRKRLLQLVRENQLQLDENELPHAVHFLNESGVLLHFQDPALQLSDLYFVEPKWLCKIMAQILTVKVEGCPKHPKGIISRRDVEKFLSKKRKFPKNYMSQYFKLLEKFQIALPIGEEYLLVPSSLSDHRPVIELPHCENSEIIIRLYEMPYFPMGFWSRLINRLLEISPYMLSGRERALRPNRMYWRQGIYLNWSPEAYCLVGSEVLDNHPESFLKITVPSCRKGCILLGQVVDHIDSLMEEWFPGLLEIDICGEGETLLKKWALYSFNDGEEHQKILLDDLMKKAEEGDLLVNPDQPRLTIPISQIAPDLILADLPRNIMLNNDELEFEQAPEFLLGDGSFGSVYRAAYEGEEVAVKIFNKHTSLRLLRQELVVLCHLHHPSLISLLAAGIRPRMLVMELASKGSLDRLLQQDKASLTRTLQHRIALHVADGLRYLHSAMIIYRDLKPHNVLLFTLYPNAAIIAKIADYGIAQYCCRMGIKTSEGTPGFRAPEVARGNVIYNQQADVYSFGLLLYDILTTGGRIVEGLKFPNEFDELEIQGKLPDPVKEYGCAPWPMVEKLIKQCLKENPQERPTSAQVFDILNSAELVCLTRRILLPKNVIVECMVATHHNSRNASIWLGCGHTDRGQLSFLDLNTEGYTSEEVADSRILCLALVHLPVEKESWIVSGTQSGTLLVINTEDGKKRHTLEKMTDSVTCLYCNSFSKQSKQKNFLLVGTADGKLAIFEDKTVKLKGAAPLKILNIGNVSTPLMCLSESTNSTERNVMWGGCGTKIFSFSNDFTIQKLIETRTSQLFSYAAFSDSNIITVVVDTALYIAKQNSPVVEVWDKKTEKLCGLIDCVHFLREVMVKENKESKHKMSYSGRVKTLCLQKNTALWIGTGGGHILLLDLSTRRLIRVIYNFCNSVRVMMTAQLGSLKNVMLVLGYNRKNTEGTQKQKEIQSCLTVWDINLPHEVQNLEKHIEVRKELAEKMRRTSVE
Method in brief: (§2)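 Each kinase was incubated with compound, 2 nM europium-labelled antibody and Tracer 236 for one hour at room temperature before plate reading. LRRK2 wt and G2019S used 5 nM protein and 10 nM tracer; NUAK1 used 8 nM protein and 5 nM tracer.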

[5] = target: T5, G2019S human LRRK2, catalytic site (Homo sapiens, UniProt Q5S007, G2019S); assay: TR-FRET LanthaScreen Eu Kinase Binding Assay, LRRK2 G2019S; details: LRRK2(G2019); one range stated for wt and G2019; read-out: IC50, Activity Toward LRRK2(G2019)
T5 construct: G2019S human LRRK2, catalytic site; purchased ThermoFisher
T5 sequence (Q5S007 970-2527 G2019S limits assumed): as the sequence (Q5S007 970-2527 limits assumed) above, with G1050S counted along it
Method in brief: as §2

[6] = target: T6, wt human NUAK1, full length (Homo sapiens, UniProt O60285); assay: TR-FRET LanthaScreen Eu Kinase Binding Assay, NUAK1; details: read-out: IC50, Activity Toward NUAK1
T6 construct: 8 nM wt human NUAK1, full length (ThermoFisher/USA); purchased ThermoFisher
T6 sequence (O60285 1-661): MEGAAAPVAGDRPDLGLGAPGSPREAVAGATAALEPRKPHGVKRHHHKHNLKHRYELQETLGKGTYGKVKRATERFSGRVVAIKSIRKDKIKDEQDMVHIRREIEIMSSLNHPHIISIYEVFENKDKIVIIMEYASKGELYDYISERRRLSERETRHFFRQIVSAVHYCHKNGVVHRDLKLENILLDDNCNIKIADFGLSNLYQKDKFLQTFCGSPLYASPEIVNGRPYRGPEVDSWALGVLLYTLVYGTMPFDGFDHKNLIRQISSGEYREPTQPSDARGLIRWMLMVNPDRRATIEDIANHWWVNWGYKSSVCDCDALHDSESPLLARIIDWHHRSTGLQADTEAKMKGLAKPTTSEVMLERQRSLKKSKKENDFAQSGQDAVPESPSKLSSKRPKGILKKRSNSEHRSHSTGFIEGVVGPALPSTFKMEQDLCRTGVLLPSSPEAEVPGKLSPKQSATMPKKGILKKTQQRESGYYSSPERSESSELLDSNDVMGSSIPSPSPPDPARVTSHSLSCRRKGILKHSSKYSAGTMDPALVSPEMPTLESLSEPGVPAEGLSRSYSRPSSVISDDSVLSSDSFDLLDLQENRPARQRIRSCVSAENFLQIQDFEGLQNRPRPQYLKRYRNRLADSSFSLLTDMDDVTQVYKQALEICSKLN
Method in brief: as §2

| SMILES | IC50 [1] [nM] | IC50 [2] [nM] | IC50 [3] [nM] | IC50 [4] [nM] | IC50 [5] [nM] | IC50 [6] [nM] |
| --- | --- | --- | --- | --- | --- | --- |
| NC(=O)c1nn(-c2c(Cl)cccc2Cl)nc1Nc1ccc(OC2CCNCC2)cc1 [Compound No. 120, 2-(2,6-dichlorophenyl)-5-((4-(piperidin-4-yloxy)phenyl)amino)-2H-1,2,3-triazole-4-carboxamide] | 10 to 100 | 10 to 100 | 100 to 1000 | – | – | – |
| CC(C)n1ncnc1-c1ccc(Nc2cn(-c3c(Cl)cccc3Cl)nc2C(N)=O)cc1 [compound 90, 1-(2,6-dichlorophenyl)-4-((4-(1-isopropyl-1H-1,2,4-triazol-5-yl)phenyl)amino)-1H-pyrazole-3-carboxamide] | 10 to 100 | 100 to 1000 | 100 to 1000 | – | – | – |
| NC(=O)c1nn(-c2c(Cl)cccc2Cl)cc1Nc1ccc(C(=O)N2CCCC2)cc1 [compound 94, 1-(2,6-dichlorophenyl)-4-((4-(pyrrolidine-1-carbonyl)phenyl)amino)-1H-pyrazole-3-carboxamide] | 10 to 100 | 10 to 100 | 100 to 1000 | – | – | – |
| Cn1ncnc1-c1ccc(Nc2cn(-c3c(Cl)cccc3Cl)nc2C(N)=O)cc1 [compound 96, 1-(2,6-dichlorophenyl)-4-((4-(1-methyl-1H-1,2,4-triazol-5-yl)phenyl)amino)-1H-pyrazole-3-carboxamide] | 10 to 100 | 10 to 100 | 100 to 1000 | – | – | – |
| N#CC1CN(C(=O)c2ccc(Nc3nn(-c4c(Cl)cccc4Cl)nc3C(N)=O)cc2)C1 [compound 107, 5-[4-(3-Cyano-azetidine-1-carbonyl)-phenylamino]-2-(2,6-dichloro-phenyl)-2H-[1,2,3]triazole-4-carboxylic acid amide] | < 10 | 100 to 1000 | 100 to 1000 | – | – | – |
| NC(=O)c1nn(-c2c(Cl)cccc2Cl)nc1Nc1ccc(-c2nnc3n2CCCC3)cc1 [compound 109, 2-(2,6-Dichloro-phenyl)-5-[4-(5,6,7,8-tetrahydro-[1,2,4]triazolo[4,3-a]pyridin-3-yl)-phenylamino]-2H-[1,2,3]triazole-4-carboxylic acid amide] | < 10 | 10 to 100 | 100 to 1000 | – | – | – |
| CN1CCC(Oc2ccc(Nc3nn(-c4c(Cl)cccc4Cl)nc3C(N)=O)cc2)CC1 [compound 114, 2-(2,6-dichlorophenyl)-5-((4-((1-methylpiperidin-4-yl)oxy)phenyl)amino)-2H-1,2,3-triazole-4-carboxamide] | < 10 | < 10 | 100 to 1000 | – | – | – |
| Cn1cnnc1-c1ccc(Nc2nn(-c3c(Cl)cccc3Cl)nc2C(N)=O)cc1 [compound 117, 2-(2,6-dichlorophenyl)-5-((4-(4-methyl-4H-1,2,4-triazol-3-yl)phenyl)amino)-2H-1,2,3-triazole-4-carboxamide] | 10 to 100 | 10 to 100 | 100 to 1000 | – | – | – |
| COCCCNC(=O)c1ccc(Nc2nn(-c3c(Cl)cccc3Cl)nc2C(N)=O)cc1 [compound 119, 2-(2,6-dichlorophenyl)-5-((4-((3-methoxypropyl)carbamoyl)phenyl)amino)-2H-1,2,3-triazole-4-carboxamide] | 10 to 100 | 10 to 100 | 100 to 1000 | – | – | – |
| NC(=O)c1nn(-c2c(Cl)cccc2Cl)nc1Nc1ccc(C(=O)N2CC(O)C2)cc1 [compound 124, 2-(2,6-dichlorophenyl)-5-((4-(3-hydroxyazetidine-1-carbonyl)phenyl)amino)-2H-1,2,3-triazole-4-carboxamide] | < 10 | 10 to 100 | 100 to 1000 | – | – | – |
| N#Cc1cn(C2COC2)c(-c2ccc(Nc3cn(-c4c(Cl)cccc4Cl)nc3C(N)=O)cc2)n1 [compound 349, 4-((4-(4-cyano-1-(oxetan-3-yl)-1H-imidazol-2-yl)phenyl)amino)-1-(2,6-dichlorophenyl)-1H-pyrazole-3-carboxamide] | < 10 | 100 to 1000 | – | 100 to 1000 | 100 to 1000 | 100 to 1000 |
| Cn1cc(Nc2cn(-c3c(F)cccc3Cl)nc2C(N)=O)cn1 [compound 359, 1-(2-chloro-6-fluorophenyl)-4-((1-methyl-1H-pyrazol-4-yl)amino)-1H-pyrazole-3-carboxamide] | 10 to 100 | 10 to 100 | – | 100 to 1000 | 100 to 1000 | 100 to 1000 |
| N#Cc1cn(CCO)c(-c2ccc(Nc3cn(-c4c(Cl)cccc4Cl)nc3C(N)=O)cc2)n1 [compound 361, 4-((4-(4-cyano-1-(2-hydroxyethyl)-1H-imidazol-2-yl)phenyl)amino)-1-(2,6-dichlorophenyl)-1H-pyrazole-3-carboxamide] | < 10 | 10 to 100 | – | 100 to 1000 | 100 to 1000 | 100 to 1000 |
| CN1CCC(N(C)C(=O)c2ccc(Nc3cn(-c4c(Cl)ccc(F)c4Cl)nc3C(N)=O)cc2)CC1 [compound 417, 1-(2,6-dichloro-3-fluorophenyl)-4-((4-(methyl(1-methylpiperidin-4-yl)carbamoyl)phenyl)amino)-1H-pyrazole-3-carboxamide] | 10 to 100 | 10 to 100 | – | 100 to 1000 | 100 to 1000 | 100 to 1000 |
| CCN(CC)CCNC(=O)c1ccc(Nc2cn(-c3c(Cl)cccc3Cl)nc2C(N)=O)cc1 [compound 422, 1-(2,6-dichlorophenyl)-4-((4-((2-(diethylamino)ethyl)carbamoyl)phenyl)amino)-1H-pyrazole-3-carboxamide] | 10 to 100 | 10 to 100 | – | 100 to 1000 | 100 to 1000 | 100 to 1000 |
| CN(C)C1CCN(C(=O)c2ccc(Nc3cn(-c4c(Cl)cccc4Cl)nc3C(N)=O)cc2)CC1 [compound 423, 1-(2,6-dichlorophenyl)-4-((4-(4-(dimethylamino)piperidine-1-carbonyl)phenyl)amino)-1H-pyrazole-3-carboxamide] | 10 to 100 | 10 to 100 | – | 100 to 1000 | 100 to 1000 | 100 to 1000 |
| NC(=O)c1nn(-c2c(Cl)cccc2Cl)cc1Nc1ccc(C(=O)N2CC(C(N)=O)C2)cc1 [compound 453, 4-[4-(3-Carbamoyl-azetidine-1-carbonyl)-phenylamino]-1-(2,6-dichloro-phenyl)-1H-pyrazole-3-carboxylic acid amide] | < 10 | < 10 | – | 100 to 1000 | 100 to 1000 | 100 to 1000 |
